This note sets out measurements from article PMC11154005 (Science (New York, N.Y.), 2023).

The target in this test is GerA complex (GerAA-GerAB-GerAC) (Bacillus subtilis, UniProt P07869). Description: membrane depolarisation, DiSC3. The following applies: 50 mM L-alanine; 30 min after addition; agonist, recognised by GerAB subunit. It is filed as cell-based.
GerA complex (GerAA-GerAB-GerAC), sequence (P07869 whole entry): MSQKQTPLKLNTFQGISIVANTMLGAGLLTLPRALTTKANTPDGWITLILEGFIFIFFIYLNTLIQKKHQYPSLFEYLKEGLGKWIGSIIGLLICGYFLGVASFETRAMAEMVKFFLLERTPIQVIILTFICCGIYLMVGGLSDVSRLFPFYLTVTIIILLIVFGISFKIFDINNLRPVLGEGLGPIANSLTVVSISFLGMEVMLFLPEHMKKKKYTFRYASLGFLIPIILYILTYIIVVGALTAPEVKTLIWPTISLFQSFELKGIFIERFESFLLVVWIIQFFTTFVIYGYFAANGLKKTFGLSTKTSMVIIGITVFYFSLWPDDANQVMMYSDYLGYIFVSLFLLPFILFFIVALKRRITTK
GerA complex (GerAA-GerAB-GerAC), sequence (P07870 18-373, further chain): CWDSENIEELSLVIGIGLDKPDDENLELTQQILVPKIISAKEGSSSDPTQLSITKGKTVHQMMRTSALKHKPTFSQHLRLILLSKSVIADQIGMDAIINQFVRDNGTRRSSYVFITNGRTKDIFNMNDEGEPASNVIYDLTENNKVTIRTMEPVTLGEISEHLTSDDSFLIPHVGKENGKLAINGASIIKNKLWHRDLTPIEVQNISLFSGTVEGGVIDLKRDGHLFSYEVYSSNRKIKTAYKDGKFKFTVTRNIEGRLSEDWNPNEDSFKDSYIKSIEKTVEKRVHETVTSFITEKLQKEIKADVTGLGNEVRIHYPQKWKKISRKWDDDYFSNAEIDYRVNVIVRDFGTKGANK
GerA complex (GerAA-GerAB-GerAC), sequence (P07868 whole entry, further chain): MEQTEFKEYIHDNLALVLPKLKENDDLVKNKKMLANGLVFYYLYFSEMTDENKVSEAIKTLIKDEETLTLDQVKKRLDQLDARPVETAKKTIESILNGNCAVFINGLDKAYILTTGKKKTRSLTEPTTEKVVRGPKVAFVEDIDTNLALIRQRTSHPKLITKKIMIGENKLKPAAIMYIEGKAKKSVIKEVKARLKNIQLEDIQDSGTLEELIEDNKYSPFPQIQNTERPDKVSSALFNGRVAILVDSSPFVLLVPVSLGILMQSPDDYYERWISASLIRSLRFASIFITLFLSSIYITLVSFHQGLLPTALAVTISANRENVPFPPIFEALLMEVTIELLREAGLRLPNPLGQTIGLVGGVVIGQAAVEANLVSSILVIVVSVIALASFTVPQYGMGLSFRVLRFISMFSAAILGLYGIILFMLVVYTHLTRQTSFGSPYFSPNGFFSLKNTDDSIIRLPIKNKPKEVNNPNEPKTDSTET

Take `C[C@H](N)C(=O)O` [L-alanine]: the “% reduction in DiSC3(5) fluorescence at 50 mM” value amounted to 30%.
